Several values for one entry are separate records, joined by “and”; a condition that tells them apart may be missing. Equal values may be shown once. Activity calls are given as the source filed them.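 How the source made its calls: active means AC50 no more than tenfold above the top dose tested, or full inhibition at every dose with a flat fit (cut at about 19 µM in these data); inconclusive means flat curve fit with inhibition between 30% and 70%, or poor fit; inactive means AC50 more than tenfold above the top dose tested.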
Tested on: HMLE_sh_eGFP viability, CellTiter-Glo luminescence, 72 h
Assay: cytotoxicity in HMLE control line with eGFP shRNA, dose response, counter-screen for HMLE_sh_ECad selective toxicity project, cell-based, HMLE_sh_eGFP, luminescence (AID 463074);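 further: counterscreen control line to flag general toxicity for the HMLE_sh_ECad screen; potency for loss of viability as luminescence drops below DMSO wells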

Row | SMILES | AC50
1 | CC(C)(Sc1ccc(CCN(CCCCC2CCCCC2)C(=O)NC2CCCCC2)cc1)C(=O)O | 5.57 µM
2 | O=C(/C=C/c1cc2ccccc2o1)c1ccccc1O | 10.1 µM
3 | O=C(CCc1ccccc1)Nc1sc2c(c1C(=O)O)CCCC2 | > 19.5 µM (inactive)
4 | Cc1cc(C(=O)NNc2ccc(F)cc2F)no1 | 1.6 µM
5 | Cc1ccc(C)c(N2CCN(C(=O)c3ccc4c(c3)c(C)c(C)n4C)CC2)c1 | 9.07 µM
6 | ClC1=C(Cl)C2(Cl)C3C(Cl)C=CC3C1(Cl)C2(Cl)Cl (stereo not given) | 6.29 µM
7 | CC(C)c1cc(-c2cc(-c3ccccc3)on2)nc(NC2CCCC2)n1 | 7.45 µM
8 | CCCCNc1nc(Nc2ccc(C)c(Cl)c2)c2cnn(C)c2n1 | 11.5 µM
9 | CN(C)C(CNS(=O)(=O)c1ccc2ccccc2c1)c1ccccc1 (stereo not given) | > 19.5 µM (inactive)
10 | c1ccc(N(c2ccccc2)c2nc(N3CCCC3)nc(-n3ccnc3)n2)cc1 | 6.28 µM
11 | FC(F)(F)c1cc(-c2ccc(Cl)cc2)nc(NCc2cccnc2)n1 | 14 µM
12 | O=C(NC(NC(=S)Nc1cccc(Cl)c1)C(Cl)(Cl)Cl)OCc1ccccc1 (stereo not given) | 3.93 µM
13 | COc1cccc(O)c1CN1CCC(C(=O)Nc2ccc(-c3cccc(C)c3)cc2)CC1 | 4.06 µM
14 | CC(=O)NNc1cccc(Cl)n1 | > 19.5 µM (inactive)
15 | CC1=CC(=O)C(C(C)C)=C/C1=C(\c1cc(C(C)C)c(OP(=O)(O)O)cc1C)c1ccccc1C(=O)O | 3.6 µM
16 | Cc1ccc(S(=O)(=O)N2CCCCC2)cc1NC(=O)Cn1ncc(Cl)c(Cl)c1=O | 2.44 µM
17 | CCOC(=O)c1c(CSc2ccc(C)cc2)oc2ccc(O)cc12 | 5.05 µM
18 | CC(=O)Oc1ccc2ccccc2c1C(NC(=O)Cc1ccccc1)c1ccc(Cl)cc1 (stereo not given) | 6.3 µM
19 | Cc1ccc(OCCCCN(C)Cc2ccccc2)c(Br)c1 | 12.5 µM
20 | Cc1cc(C)cc(NC(=O)CCc2nc3sc4c(c3c(=O)[nH]2)CCCC4)c1 | 5.26 µM
21 | OC(CNCc1ccco1)Cn1c2ccc(Br)cc2c2cc(Br)ccc21 (stereo not given) | 3.64 µM
22 | COc1cc(CNCCc2ccccc2)cc(Cl)c1OCc1ccccc1 | 4.84 µM
23 | O=C(Cc1ccc(Cl)cc1)Nc1ccc2c(c1)C(=O)NC2=O | > 19.5 µM (inactive)
24 | CC(NC(=O)C1CCC(C(=O)NC(C)c2ccccc2)CC1)c1ccccc1 (stereo not given) | > 19.5 µM (inactive)
25 | COc1cc(/C=N/NC(=O)c2cc(C34CC5CC(CC(C5)C3)C4)[nH]n2)ccc1O | 0.24 µM

Row | SMILES | AC50
26 | CCOC(=O)c1ccc(Nc2cc(C)nc(-c3ccccc3)n2)cc1 | 3.71 µM
27 | CN1CCN(S(=O)(=O)c2cccc(C(=O)Nc3cc(C(F)(F)F)ccc3N3CCCCC3)c2)CC1 | 5.34 µM
28 | Cc1ccc(C)c(NC(=O)CSc2nc3nc(-c4cccs4)cc(C(F)(F)F)c3c(=O)[nH]2)c1 | 4.39 µM
29 | O=C1NC(=O)N(Cc2ccccc2)C(=O)/C1=C/C=C/c1ccco1 | 2.04 µM
30 | O=C(Nc1ccccc1N1CCCCC1)c1ccc(Cl)c([N+](=O)[O-])c1 | 3.24 µM
31 | CC1=C(C(=O)OC2CCCCCCC2)C(c2cc3c(cc2Br)OCO3)CC(=O)N1 (stereo not given) | 2.57 µM
32 | C=C(C)COc1ccc(-c2[nH]ncc2-c2ccc(OC)cc2)c(O)c1 | 8.86 µM
33 | Cc1ccc(C(=O)NC(=C(Cl)Cl)S(=O)(=O)c2ccc(C)cc2)cc1 | 5.16 µM
34 | O=S(=O)(Nc1ccc(-n2cccc2)cc1)c1ccc(Cl)c(Cl)c1 | 5.21 µM
35 | COC(=O)c1ccc(/C=C/c2c(-c3ccc(OC)cc3)oc3ccccc23)cc1 | 5.95 µM
36 | NCCc1ccc(OCc2ccccc2)c(OCc2ccccc2)c1 | 13.6 µM
37 | O=C(c1c[nH]c2ccccc12)C(Cl)c1ccccc1 (stereo not given) | 11.2 µM
38 | Cc1ccc(-n2nnnc2SC(C(=O)c2c[nH]c3ccccc23)c2ccccc2)cc1 (stereo not given) | 3.21 µM
39 | Cc1cc(C)c(C(=O)/C=C/c2ccc(C(C)C)cc2)c(=O)[nH]1 | 10.1 µM
40 | O=C(/C=C/c1ccc(F)cc1)c1ccccc1Br | 3.57 µM
41 | O=S(=O)(Nc1nc2ccccc2nc1N1CCN(c2ccccc2F)CC1)c1ccc(Cl)cc1 | 5.8 µM
42 | NC(=O)CC(NC(=O)c1ccc(Br)cc1)c1ccc(N2CCCCCC2)c([N+](=O)[O-])c1 (stereo not given) | 19.6 µM
43 | O=C(Cc1ccc(Cl)c(Cl)c1)Nc1ccc(SC(F)F)cc1 | 3.93 µM
44 | CCN(CC)S(=O)(=O)c1cccc(C(=O)N/N=C/c2cccc(O)c2O)c1 | 7.97 µM
45 | O=C(NC(NC(=S)Nc1ccccc1)C(Cl)(Cl)Cl)c1cccc(Cl)c1 (stereo not given) | 5.36 µM
46 | COc1ccc(-c2cn[nH]c2-c2ccc(OCc3ccccc3)cc2O)cc1 | 7.02 µM
47 | CCOc1cc(/C=C\c2[nH]c(=O)[nH]c(=O)c2[N+](=O)[O-])ccc1OC(C)CC (stereo not given) | 8.32 µM
48 | COc1ccc2c(c1)CCc1c(C(=O)N3CC4(C)CC3CC(C)(C)C4)noc1-2 (stereo not given) | < 0.16 µM
49 | COc1ccc(/C=N/NC(=S)Nc2ccccc2[N+](=O)[O-])cc1O | 5.87 µM
50 | CCN(CC(=O)NC1CCCCC1)S(=O)(=O)c1ccc(Cl)cc1 | > 19.5 µM (inactive)

Row | SMILES | AC50
51 | CCC(C)c1ccccc1NC(=O)COC(=O)c1ccc2[nH]c3c(c2c1)CCCC3 (stereo not given) | 3.4 µM
52 | CCN(CC)CCOc1ccc(/C(=C(/Cl)c2ccccc2)c2ccccc2)cc1 | 0.992 µM and 2.55 µM
53 | CCCC(c1nnnn1CC1CCCO1)N1CCN(c2cc(Cl)ccc2C)CC1 (stereo not given) | 2.78 µM
54 | Cc1cc(N2C(=O)C=CC2=O)c([N+](=O)[O-])cc1C | 5.88 µM
55 | Cc1ccc(C(=O)NC(=C(Cl)Cl)S(=O)(=O)c2ccccc2)cc1 | 3.22 µM
56 | COc1cccc(Cn2nnc(C(=O)Nc3cc(Cl)ccc3OC)c2N)c1 | 0.935 µM
57 | CCCCCc1cc(=O)oc2c(C(CCN3CCCC(C)C3)c3ccc(N(C)C)cc3)c(OC)cc(OC)c12 (stereo not given) | 6.69 µM
58 | CC(C)=CCc1c(O)c(CC=C(C)C)c2occ(-c3ccc(O)cc3)c(=O)c2c1O | 3.49 µM
59 | COC(=O)c1c(NC(=O)/C=C/c2ccc3c(c2)OCO3)sc(C)c1C | 1.7 µM
60 | S=c1[nH]nc(-c2ccccc2)n1/N=C/c1ccc(-c2ccccc2Cl)o1 | 5.93 µM
61 | CCC/C(=C1/c2ccccc2C(=O)N1c1ccccc1)c1ccc2[nH]ccc2c1 | 1.67 µM
62 | CCSc1nnc(-c2sc3nnc(-c4ccccc4)c(-c4ccccc4)c3c2N)o1 | 0.539 µM
63 | Cc1nc(C2CCC3C4CCC5=CC(=O)CC[C@]5(C)C4CC[C@]23C)cs1 (stereo not given in full) | 7.15 µM
64 | COc1ccc(C(c2c[nH]c3ccccc23)c2c[nH]c3ccccc23)cc1O | 4.62 µM
65 | C[C@]12CC[C@H](O)C[C@H]1CC[C@@H]1C2CC[C@]2(C)[C@@H](C3=CC(=O)OC3)[C@@H](O)C[C@]12O (stereo not given in full) | 1.55 µM
66 | COc1ccc(-n2c(Cc3cccn3C)nnc2SCC(=O)Nc2cccc(Cl)c2)cc1 | > 19.5 µM (inactive)
67 | COc1ccc(-c2nc3cnccn3c2NC2CCCCC2)cc1-c1cccc(Cl)c1 | 6.62 µM
68 | C[C@H]1CCC/C=C/[C@@H]2C[C@H](O)C[C@H]2[C@H](O)/C=C/C(=O)O1 | < 0.16 µM
69 | Cc1ccc([N+](=O)[O-])cc1-c1ccc(/C=C(\C#N)c2[nH]nc(N)c2C#N)o1 | 4.84 µM
70 | COc1ccccc1-c1cc(C(F)(F)F)nc(S(C)(=O)=O)n1 | 6.13 µM
71 | COC(=O)c1ccc(CN(c2ccc(C(=O)O)c(O)c2)S(=O)(=O)c2ccc(Cl)c([N+](=O)[O-])c2)cc1 | 3.5 µM
72 | O=C(CN1CCCCCC1)Nc1ccccc1Oc1ccccc1 | 0.808 µM
73 | C=CCn1cccc(/C=C/C(=O)c2ccc(C(C)(C)C)cc2)c1=S | 6.19 µM
74 | C=CCn1c(O)c(C2=c3ccccc3=NC2=O)c2ccccc21 | 7.4 µM
75 | C=C[C@@H]1c2cccc(C)c2N(S(=O)(=O)c2ccc(C)cc2)[C@H](c2ccc(OC(C)=O)cc2)C1(C#N)C#N | 6.71 µM
